Laboratory results as given in US20220288001A1, “CREATINE FOR IMMUNOTHERAPY” (The Regents of the University of California, priority 2019, published 2022).
“Also recorded” adds a separate entry of the source.

What was measured:
Format in all cases: cell-based, mouse
AMPK = assay: Western blot of AMPK and TCR signaling events in CD8 T cells with AICAR treatment
Procedure: In some other experiments, AICAR (5-aminoimidazole-4-carboxamide 1-β-D-ribofuranoside, Cat #A9978, Sigma-Aldrich), an AMPK activator, was reconstituted in DMSO and used to pretreat T cells for 30 minutes, at the concentration of 2 mM followed by 20 minutes of anti-CD3 stimulation for western blot analysis of TCR signaling events, or at the concentration of 250 μM followed by 16 hours of anti-CD3 stimulation for flow cytometry analysis of CD25 expression and ELISA analysis of IL-2 production.
Total protein was extracted using RIPA lysis buffer (Thermo Fisher Scientific) supplemented with a phosphatase inhibitor cocktail (Sigma-Aldrich) and a protease inhibitor cocktail (Roche) following the manufacturers' instructions. Nuclear protein was extracted using a Nuclear Protein Extraction Kit (Thermo Fisher Scientific) following the manufacturer's instructions, or using homemade reagents (10 mM HEPES pH 7.9, 10 mM KCl, 0.34 M sucrose, 10% glycerol, 1 mM DTT, 0.1% Triton X-100, 1.5 mM MgCl2 and protease inhibitor cocktail) following a previously established protocol (Ma et al., 2019). Protein concentration was measured by a BCA assay (Cat #23228 and Cat #1859078, Thermo Fisher Scientific). Equal amounts of protein were resolved on a 12% SDS-PAGE gel and then transferred to a PVDF membrane by electrophoresis. The following anti-mouse antibodies were purchased from Cell Signaling Technology and used to blot for the protein of interest: p-Zap-70 (cat #2705S; clone 99F2); Zap-70 (cat #2717S; clone Y319); p-Lck (cat #2751S; clone Y505); Lck (cat #2752S); p-c-Jun (cat #9261S; clone S63); NFAT (cat #4389S); NF-κB p65 (cat #8242P; clone D14E12); AMPK (cat #5831T; clone D5A2); p-AMPK (cat #2535T; clone 40H9), secondary anti-mouse (cat #7076P2), and secondary anti-rabbit (cat #7074P2). Anti-mouse CrT (SLC6A8) (cat #PA5-37060) was purchased from Thermo Fisher Scientific. β-Actin (Santa Cruz Biotechnology Inc.; cat #sc-69879; clone AC-15) was used as an internal control for total protein extracts, while Lamin A (Santa Cruz Biotechnology; cat #sc-71481; clone 4A58) was used as an internal control for nuclear protein extracts. Signals were visualized with autoradiography using an ECL system (Cat #RPN2232, Thermo Fisher Scientific). Data analysis was performed using ImageJ software (NIH).

CD8 T cells [1] = assay: CD8 T cell activation with AICAR treatment (CD25 flow cytometry, IL-2 ELISA); settings: CrT-WT and CrT-KO CD8 T cells; AICAR 250 μM; anti-CD3 16 hours
Procedure: CD8 T cells were cultured in vitro in standard T cell culture medium comprising RPMI 1640 (Cat #10040, Corning), 10% FBS (Cat #F2442, Sigma), 1% Penicillin-Streptomycin-Glutamine (Cat #10378016, Gibco), 1% MEM Non-Essential Amino Acids Solution (Cat #11140050, Gibco), 1% HEPES (Cat #15630080, Gibco), 1% Sodium Pyruvate (100 mM) (Cat #11360070, Gibco), and 0.05 mM β -Mercaptoethanol (Cat #M3148, Sigma). Unless otherwise indicated, cells were seeded at 0.5×10^6 cells per well in 24-well plates and stimulated with plate-bound anti-CD3 (5 μg/ml) (clone 145-2C11), for up to 5 days. At indicated time point(s), cells were collected and analyzed for CrT mRNA expression using qPCR, for cell proliferation through cell counting, for viability through Annexin V/7-AAD staining followed by flow cytometry analysis, for surface activation marker (CD25) expression through surface staining followed by flow cytometry analysis, for effector molecule (Granzyme B, IL-2, and IFN-γ) production through intracellular staining followed by flow cytometry analysis, and for cytokine (IL-2 and IFN-γ) secretion through collecting cell culture supernatants followed by ELISA analysis. CrT protein expression and TCR signaling events were analyzed using western blot analysis. […]

CD8 T cells [2] = assay: CD8 T cell activation in vitro with ATP supplementation (CD25 flow cytometry, IFN-γ ELISA); settings: ATP 100 μM, anti-CD3
Procedure: CD8 T cells were cultured in vitro in standard T cell culture medium comprising RPMI 1640 (Cat #10040, Corning), 10% FBS (Cat #F2442, Sigma), 1% Penicillin-Streptomycin-Glutamine (Cat #10378016, Gibco), 1% MEM Non-Essential Amino Acids Solution (Cat #11140050, Gibco), 1% HEPES (Cat #15630080, Gibco), 1% Sodium Pyruvate (100 mM) (Cat #11360070, Gibco), and 0.05 mM β -Mercaptoethanol (Cat #M3148, Sigma). Unless otherwise indicated, cells were seeded at 0.5×10^6 cells per well in 24-well plates and stimulated with plate-bound anti-CD3 (5 μg/ml) (clone 145-2C11), for up to 5 days. At indicated time point(s), cells were collected and analyzed for CrT mRNA expression using qPCR, for cell proliferation through cell counting, for viability through Annexin V/7-AAD staining followed by flow cytometry analysis, for surface activation marker (CD25) expression through surface staining followed by flow cytometry analysis, for effector molecule (Granzyme B, IL-2, and IFN-γ) production through intracellular staining followed by flow cytometry analysis, and for cytokine (IL-2 and IFN-γ) secretion through collecting cell culture supernatants followed by ELISA analysis. CrT protein expression and TCR signaling events were analyzed using western blot analysis.
(§1) In some experiments, ATP (adenosine-5′-triphosphate disodium salt hydrate, Cat #A6419, Sigma-Aldrich) was reconstituted in sterile PBS and added to T cell culture (100 μM) for two to three days along with anti-CD3 stimulation, followed by analyzing T cell surface activation marker (CD25) expression using flow cytometry, and analyzing effector cytokine (IFN-γ) secretion using ELISA. In some experiments, T cells were stimulated with anti-CD3 for 48 hours, rested at 4° C. for 2 hours, then restimulated with anti-CD3 for 30 minutes in the presence or absence of ATP supplementation (100 μM) followed by analyzing TCR signaling events using western blot.
ELISA was performed for the detection of cytokines according to a BD Biosciences protocol. […] The absorbance was measured at 450 nm using an Infinite M1000 microplate reader (Tecan).

TCR signaling = assay: Western blot of TCR signaling events in CrT-KO CD8 T cells with ATP supplementation; settings: ATP 100 μM, restimulated with anti-CD3 30 minutes
Procedure: as §1
Total protein was extracted using RIPA lysis buffer (Thermo Fisher Scientific) supplemented with a phosphatase inhibitor cocktail (Sigma-Aldrich) and a protease inhibitor cocktail (Roche) following the manufacturers' instructions. Nuclear protein was extracted using a Nuclear Protein Extraction Kit (Thermo Fisher Scientific) following the manufacturer's instructions, or using homemade reagents (10 mM HEPES pH 7.9, 10 mM KCl, 0.34 M sucrose, 10% glycerol, 1 mM DTT, 0.1% Triton X-100, 1.5 mM MgCl2 and protease inhibitor cocktail) following a previously established protocol (Ma et al., 2019). Protein concentration was measured by a BCA assay (Cat #23228 and Cat #1859078, Thermo Fisher Scientific). […]

| Compound | activation of NFAT (AMPK; CD8 T cells, AICAR 2 mM) | activation of Zap-70 (AMPK; CD8 T cells, AICAR 2 mM) | AP-1 transcription factor activation (c-Jun subunit) (AMPK; CrT-WT and CrT-KO CD8 T cells, AICAR 2 mM) | AMPK activation (AMPK; CrT-WT and CrT-KO CD8 T cells, AICAR 2 mM pretreatment 30 minutes) | cell surface activation marker expression (CD25) (CD8 T cells [1]) | effector cytokine production (IL-2) (CD8 T cells [1]) | effector cytokine IFN-γ production (CD8 T cells [2]; CrT-KO CD8 T cells, day 3) | surface activation marker CD25 expression (CD8 T cells [2]; CrT-KO CD8 T cells, day 3) | activation of CD8 T cells (CD25) (CD8 T cells [2]; CrT-WT CD8 T cells, 48 hours, disodium salt hydrate) | TCR signaling deficiencies (TCR signaling) |
| --- | --- | --- | --- | --- | --- | --- | --- | --- | --- | --- |
| NC(=O)c1ncn([C@@H]2O[C@H](CO)[C@@H](O)[C@H]2O)c1N [AICAR, 5-aminoimidazole-4-carboxamide 1-β-D-ribofuranoside] | not affected | not affected | significant reduction | markedly activated AMPK | significant reduction | significant reduction | – | – | – | – |
| Nc1ncnc2c1ncn2[C@@H]1O[C@H](COP(=O)([O-])OP(=O)([O-])OP(=O)(O)O)[C@@H](O)[C@H]1O.O.[Na+].[Na+] [ATP, adenosine-5′-triphosphate disodium salt hydrate] | – | – | – | – | – | – | enhanced production | increased expression | further increased the activation; also recorded: further enhanced the activation | effectively rescued |
